Test results: patent EP4474386A1, “ANTHRACYCLINES” (priority 2023, dated 2024)
pIC50: −log10 of the molar value. “Also recorded” adds a separate entry of the source.

Assays:
[1] = system: γH2AX levels in K562 cells; test: Assay 3: Western blot of γH2AX levels (DNA damage); format: cell-based, human; details: 10 µM, 2 h, FIGS. 3A & 3B
Method: Cells were seeded into 12-well format (e.g. 250.000 cells/well for K562, or Mjs), treated with indicated drugs at 10 µM for 2 hours. Subsequently, drugs were removed by extensive washing and cells were collected and processed immediately for the assays. Cells were lysed directly in SDS-sample buffer (2%SDS, 10% glycerol, 5% β-mercaptoethanol, 60mM Tris-HCl pH 6.8 and 0.01% bromophenol blue). Samples were separated by SDS-PAGE and transferred to a PVDF membrane (Immobilon-P, 0.45µm, Millipore). Blocking of the filters and antibody incubations were done in PBS supplemented with 0.1 (v/v)% Tween and 5% (w/v) milk powder (Skim milk powder, LP0031, Oxiod). Blots were imaged by the Odyssey Classic imager (Li-Cor). Intensity of bands was quantified using imaged or Image Studio software. For CFGE: DNA double strand breaks were quantified by constant-field gel electrophoresis as described in Wlodek D., Banáth J., & Olive P. L., International Journal of Radiation Biology, 1991, 60:5, 779-790. Images were quantified using imaged software.
Primary antibodies used for Western blotting: γH2AX (1:1000, 05-036, Millipore), β-actin (1:10000, A5441, Sigma). […]
Assay 3. […] This was determined by assessing γH2AX levels (see Kuo, L. J., Yang, L. X. In Vivo. April 2008, pp 305-310) using the assay for Western blot analysis described herein. […]

[2] = system: DNA double-strand breaks in K562 cells; test: Assay 2: Constant-field gel electrophoresis (CFGE), DNA double-strand breaks; format: cell-based, human; details: 10 µM, 2 hours, FIGS. 3C & 3D
Method: Cells were seeded into 12-well format (e.g. 250.000 cells/well for K562, or Mjs), treated with indicated drugs at 10 µM for 2 hours. Subsequently, drugs were removed by extensive washing and cells were collected and processed immediately for the assays. DNA double strand breaks were quantified by constant-field gel electrophoresis as described in Wlodek D., Banáth J., & Olive P. L., International Journal of Radiation Biology, 1991, 60:5, 779-790. Images were quantified using imaged software.
Assay 2. Because anthracycline drugs can also evict histones, including H2AX, the levels of phosphorylated H2AX might be affected. To determine DNA double-strand break induction by the compounds embodying the present invention at the DNA level, we assessed the DNA damage capacity of all the compounds by using constant field gel electrophoresis (CFGE), as described below, a more direct method to detect DNA breaks. The results are set out in FIGS. 3C & 3D.

[3] = system: MelJuSo-PAGFP-H2A cells; test: Assay 4: Microscopy analysis, PAGFP-H2A photoactivation and time-lapse confocal imaging (histone eviction); format: cell-based, human; details: 10 µM, 1 hour time-lapse; FIG. 4A
Method: For PAGFP-H2A photoactivation and time-lapse confocal imaging, cells were seeded in a 35mm glass bottom petri dish (Poly-dlysine-Coated, MatTek Corporation), and imaged 16 hours later as described in Pang, B., Qiao, X., Janssen, L. et al. Nat Commun 4, 2013, 1908 for one hour following addition of 10µM of the indicated drugs. Time-lapse confocal imaging was performed on a Leica SP8 confocal microscope system 63x lens, equipped with a climate chamber. Movies were quantified using imaged software.
Assay 4. This assay visualised histone eviction and subsequently, the chromatin damage induced by the compounds embodying the present invention could be assessed. The method followed is described in the assay for microscopy analysis described herein.

[4] = system: human myelogenous leukemic cell line K562; test: Assay 1: Short-term growth inhibition viability assay (CellTiter-Blue); format: cell-based; details: K562 cells
Method: Cells were seeded into 96-well format (e.g. 2000 cells/well for K562, Mjs, or U2O cells). 24 hours after seeding, cells were treated with indicated compounds for 2 hours at various concentrations. Subsequently, compounds were removed, and cells were left to grow for an additional 72 hours. Cell viability was measured using the CellTiter-Blue viability assay (Promega). Relative survival was normalized to the untreated control and corrected for background signal.
K562 cells (B. Pang, Leiden University Medical Center, the Netherlands) were maintained in RPMI-1640 medium supplemented with 8% FCS. MelJuSo cells were maintained in IMDM supplemented with 8% FCS. MelJuSo cells stably expressing PAGFP-H2A were maintained in IMDM supplemented with 8% FCS and G-418, as described in Pang, B., Qiao, X., Janssen, L. et al. Nat Commun 4, 1908 (2013). U2Os cells (ATCC® HTB-96) were maintained in DMEM medium supplemented with 8% FCS. Cell lines were maintained in a humidified atmosphere of 5% CO2 at 37°C, regularly tested for the absence of mycoplasma and the origin of cell lines was validated using STR analysis.
Assay 1. Anthracyclines are often used in the treatment of acute myeloid leukaemia and other haematological malignancies. Therefore, the compounds shown in FIG. 1 were assayed for their activity versus human myelogenous leukemic cell line K562 in order to determine their cytotoxicity in vitro, using the assay for short-term growth inhibition viability described herein. […] IC50 is expressed in µM and represents the concentration of compound required to inhibit cell proliferation by 50%.

In the case of CC(=O)[C@]1(O)Cc2c(O)c3c(c(O)c2[C@@H](O[C@H]2C[C@H](N(C)C)[C@H](O)[C@H](C)O2)C1)C(=O)c1ccccc1C3=O [Compound 18, N,N-dimethylidarubicin], the “DNA damage (γH2AX levels)” value [1] was “did not induce DNA damage”, the “DNA double-strand break induction (CFGE)” value [2] was “do not induce DNA; also recorded: does not induce any DNA double-strand breaks” and the “chromatin damage / rate of histone eviction (in words)” value [3] was “superior chromatin damage activity relative to doxorubicin (1); also recorded: improved or comparable toxicity and rate of histone eviction relative to doxorubicin (1) and idarubicin (17)”.

For CC(=O)[C@]1(O)Cc2c(O)c3c(c(O)c2[C@@H](O[C@H]2C[C@H](N(C)C)[C@H](O[C@H]4C[C@H](O)[C@H](O[C@H]5CCC(=O)[C@H](C)O5)[C@H](C)O4)[C@H](C)O2)C1)C(=O)c1ccccc1C3=O [Compound 26, 7-[2,3-Dideoxy-4-ulo-α-L-fucopyranosyl-2-deoxy-α-L-fucopyranosyl-(1→4)- -2,3-dideoxy-3-dimethylamino-α-L-fucopyranoside]-idarubicinone], the “cytotoxicity (in words, compared with reference anthracyclines)” value ([4]; FIG. 2A) was “considerably more cytotoxic than doxorubicin (1); also recorded: most effective compound tested; also recorded: more toxic than doxorubicin (1), aclarubicin (2) and idarubicin (17)”, the pIC50 ([4]; 2 hours treatment, then 72 hours growth) was 7.70 and the “times more cytotoxic than doxorubicin (1)” value ([4]; relative to doxorubicin (1)) was 16 times. The “DNA damage (γH2AX levels)” value [1] was “did not induce DNA damage”, the “DNA double-strand break induction (CFGE)” value [2] was “do not induce DNA; also recorded: not inducing any DNA double-strand breaks” and the “chromatin damage / rate of histone eviction (in words)” value [3] was “superior chromatin damage activity relative to doxorubicin (1); also recorded: fastest histone eviction activity; also recorded: more efficient in terms of histone eviction”.
